Reference: patent US4552879A, “Benzoheterocyclic compounds and pharmaceutical composition thereof” (Otsuka Pharmaceutical Co., Ltd., priority 1980, dated 1985)
≈ marks a conversion by molar mass, not a printed value. Where two headings read alike, the source gives them in different places.

Columns and labels:
Type in all cases: cell-based
[1] = tested on: Staphyloccus aureus Smith; test: Minimum inhibitory concentration, serial dilution method on agar plate
[2] = tested on: Staphylococcus aureus 50774; test: as above
[3] = tested on: Staphylococcus epidermidis IFO 3762; test: as above
Bacillus anthracis = test: microbe, parasite or virus in culture
Proteus rettgeri NIH 96 = test: Minimum inhibitory concentration, serial dilution method on agar plate; settings: Providencia rettgeri
[4] = tested on: Staphylococcus aureus ATCC 12692; test: as above
Bacillus cereus IFO 3446 = test: as above
[5] = tested on: Bacillus pumilus IFO 3813; test: as above
[6] = tested on: Bacillus subtilis PCI 219; test: as above
[7] = tested on: Streptococcus pyogenes IID S-23; test: as above; settings: Streptococcus pyogenes, read-out: Minimum Inhibitory Concentration
[8] = tested on: Pseudomonas aeruginosa E-2; test: as above; settings: Pseudomonas aeruginosa, read-out: Minimum Inhibitory Concentration
[9] = tested on: Staphylococcus aureus No. 286; test: as above
[10] = tested on: Bacillus circuluns ATCC 8241; test: as above
[11] = tested on: Salmonella typhi 0-901 (NCTC 8393); test: as above; settings: Salmonella enterica
[12] = tested on: Peptococcus asaccharolyticus WAL 3218; test: as above; settings: Peptoniphilus asaccharolyticus
[13] = tested on: Bacillus cereus ATCC 11778; test: as above
[14] = tested on: Corynebacterium diphteriae; test: as above
[15] = tested on: Bacteroides thetaiotaomicron WAL 2926; test: as above
Shigella sonnei EW 33 = test: as above
Method: The antimicrobial activity of the following test compounds on various test organisms listed below was determined by the serial dilution method on agar plate (Heart Infusion agar produced by Difco Co.) (see CHEMOTHERAPY 22, pp. 1126-1128 (1974)), and the minimum inhibitory concentrations (mcg/ml) obtained are shown in Tables 1, 2 and 3 below.
A sample of each test organism was prepared so that the population of the organism was 1×10^8 cells/ml (O.D. 660 mμ=0.07 to 0.16) and 1×10^6 cells/ml (which was obtained by diluting 100 fold the above 1×10^8 cells/ml preparation).

[16] = tested on: Staphylococcus aureus Newmann; test: as above
[17] = tested on: Staphylococcus aureus IFO 3060; test: as above
[18] = tested on: Micrococcus flavus ATCC 10240a; test: as above; settings: ATCC10240A
Klebsiella pneumoniae = test: as above; settings: read-out: Minimum Inhibitory Concentration
[19] = tested on: Micrococcus luteus ATCC 4698; test: as above
[20] = tested on: Serratia marcescens IFO 12648; test: as above; settings: read-out: Minimum Inhibitory Concentration
[21] = tested on: Pseudomonas aeruginosa ATCC 10145; test: as above; settings: Pseudomonas aeruginosa, read-out: Minimum Inhibitory Concentration
[22] = tested on: Staphylococcus aureus FDA 209 P; test: as above; settings: Staphylococcus aureus, read-out: Minimum Inhibitory Concentration
[23] = tested on: Staphylococcus aureus B-70; test: as above
[24] = tested on: Escherichia Coli NIHJ JC-2 (IFO 12734); test: as above; settings: read-out: Minimum Inhibitory Concentration
[25] = tested on: Staphylococcus aureus IFO 3761; test: as above
Bacillus cereus IFO 3001 = test: as above

CC1CCc2c(N3CCC(O)CC3)c(F)cc3c(=O)c(C(=O)O)cn1c23 (centres unmarked) [Compound 1, 9-Fluoro-8-(4-hydroxy-1-piperidyl)-5-methyl-6,7-dihydro-1-oxo-1H,5H-benzo[ij]quinolizine-2-carboxylic acid]
Minimum Inhibitory Concentration ([1]; 1×10^6 cells/ml): 0.05 µg/mL
MIC ([1]; 1×10^8 cells/ml): 0.05 µg/mL (≈ 0.139 µM)
Minimum Inhibitory Concentration ([2]; 1×10^6 cells/ml): 0.05 µg/mL
MIC ([2]; Staphylococcus aureus, 50774, 1×10^8 cells/ml): 0.05 µg/mL (≈ 0.139 µM)
MIC ([3]; IFO3762, 1×10^6 cells/ml): 0.2 µg/mL (≈ 0.555 µM)
MIC ([3]; IFO3762, 1×10^8 cells/ml): 0.39 µg/mL (≈ 1.08 µM)
Minimum Inhibitory Concentration (Bacillus anthracis; 1×10^6 cells/ml): 0.05 µg/mL
MIC (Bacillus anthracis; Bacillus anthracis, read-out: Minimum Inhibitory Concentration): 0.05 µg/mL (≈ 0.139 µM)
MIC (Proteus rettgeri NIH 96; NIH96, read-out: Minimum Inhibitory Concentration, 1×10^6 cells/ml): 0.1 µg/mL (≈ 0.277 µM)
MIC (Proteus rettgeri NIH 96; NIH96, read-out: Minimum Inhibitory Concentration, 1×10^8 cells/ml): 0.2 µg/mL (≈ 0.555 µM)
Minimum Inhibitory Concentration ([4]; 1×10^6 cells/ml): 0.05 µg/mL
MIC ([4]; Staphylococcus aureus, ATCC12692, 1×10^8 cells/ml): 0.05 µg/mL (≈ 0.139 µM)
Minimum Inhibitory Concentration (Bacillus cereus IFO 3446; 1×10^6 cells/ml): 0.10 µg/mL
MIC (Bacillus cereus IFO 3446; Bacillus cereus, IFO3446, 1×10^8 cells/ml): 0.1 µg/mL (≈ 0.277 µM)
Minimum Inhibitory Concentration ([5]; 1×10^6 cells/ml): 0.024 µg/mL
MIC ([5]; Bacillus pumilus, IFO3813, 1×10^8 cells/ml): 0.024 µg/mL (≈ 0.0666 µM)
Minimum Inhibitory Concentration ([6]; 1×10^6 cells/ml): 0.024 µg/mL
MIC ([6]; Bacillus subtilis, PCI219, 1×10^8 cells/ml): 0.024 µg/mL (≈ 0.0666 µM)
MIC ([7]; IIDS23, 1×10^6 cells/ml): 0.39 µg/mL (≈ 1.08 µM)
MIC ([7]; IIDS23, 1×10^8 cells/ml): 0.78 µg/mL (≈ 2.16 µM)
MIC ([8]; E2, 1×10^6 cells/ml): 6.25 µg/mL (≈ 17.3 µM)
MIC ([8]; E2, 1×10^8 cells/ml): 6.25 µg/mL (≈ 17.3 µM)
MIC ([9]; NO.286, 1×10^6 cells/ml): 0.05 µg/mL (≈ 0.139 µM)
MIC ([9]; NO.286, 1×10^8 cells/ml): 0.1 µg/mL (≈ 0.277 µM)
Minimum Inhibitory Concentration ([10]; 1×10^6 cells/ml): 0.024 µg/mL
MIC ([10]; Bacillus, ATCC8241, 1×10^8 cells/ml): 0.024 µg/mL (≈ 0.0666 µM)
MIC ([11]; read-out: Minimum Inhibitory Concentration, 1×10^6 cells/ml): 0.05 µg/mL (≈ 0.139 µM)
MIC ([11]; read-out: Minimum Inhibitory Concentration, 1×10^8 cells/ml): 0.1 µg/mL (≈ 0.277 µM)
MIC ([12]; WAL3218, 1×10^6 cells/ml): 0.78 µg/mL (≈ 2.16 µM)
MIC ([12]; WAL3218, 1×10^8 cells/ml): 1.56 µg/mL (≈ 4.33 µM)
Minimum Inhibitory Concentration ([13]; 1×10^6 cells/ml): 0.10 µg/mL
MIC ([13]; Bacillus cereus, ATCC11778, 1×10^8 cells/ml): 0.1 µg/mL (≈ 0.277 µM)
Minimum Inhibitory Concentration ([14]; 1×10^6 cells/ml): 0.05 µg/mL
MIC ([14]; Corynebacterium, 1×10^8 cells/ml): 0.05 µg/mL (≈ 0.139 µM)
MIC ([15]; WAL2926, 1×10^6 cells/ml): 1.56 µg/mL (≈ 4.33 µM)
MIC ([15]; WAL2926, 1×10^8 cells/ml): 6.25 µg/mL (≈ 17.3 µM)
MIC (Shigella sonnei EW 33; EW33, 1×10^6 cells/ml): 0.2 µg/mL (≈ 0.555 µM)
MIC (Shigella sonnei EW 33; EW33, 1×10^8 cells/ml): 0.2 µg/mL (≈ 0.555 µM)
MIC ([16]; 1×10^6 cells/ml): 0.024 µg/mL (≈ 0.0666 µM)
MIC ([16]; 1×10^8 cells/ml): 0.05 µg/mL (≈ 0.139 µM)
MIC ([17]; IFO3060, 1×10^6 cells/ml): 0.05 µg/mL (≈ 0.139 µM)
MIC ([17]; IFO3060, 1×10^8 cells/ml): 0.1 µg/mL (≈ 0.277 µM)
MIC ([18]; 1×10^6 cells/ml): 0.2 µg/mL (≈ 0.555 µM)
MIC ([18]; 1×10^8 cells/ml): 0.39 µg/mL (≈ 1.08 µM)
MIC (Klebsiella pneumoniae; 1×10^6 cells/ml): 0.39 µg/mL (≈ 1.08 µM)
MIC (Klebsiella pneumoniae; 1×10^8 cells/ml): 0.39 µg/mL (≈ 1.08 µM)
MIC ([19]; ATCC4698, 1×10^6 cells/ml): 0.1 µg/mL (≈ 0.277 µM)
MIC ([19]; ATCC4698, 1×10^8 cells/ml): 0.2 µg/mL (≈ 0.555 µM)
MIC ([20]; IFO12648, 1×10^6 cells/ml): 0.78 µg/mL (≈ 2.16 µM)
MIC ([20]; IFO12648, 1×10^8 cells/ml): 1.56 µg/mL (≈ 4.33 µM)
MIC ([21]; ATCC10145, 1×10^6 cells/ml): 3.13 µg/mL (≈ 8.69 µM)
MIC ([21]; ATCC10145, 1×10^8 cells/ml): 3.13 µg/mL (≈ 8.69 µM)
MIC ([22]; FDA209, 1×10^6 cells/ml): ≤ 0.025 µg/mL
MIC ([22]; FDA209, 1×10^8 cells/ml): ≤ 0.05 µg/mL
MIC ([23]; B70, 1×10^6 cells/ml): 0.024 µg/mL (≈ 0.0666 µM)
MIC ([23]; B70, 1×10^8 cells/ml): 0.05 µg/mL (≈ 0.139 µM)
MIC ([24]; 1×10^6 cells/ml): 0.39 µg/mL (≈ 1.08 µM)
MIC ([24]; 1×10^8 cells/ml): 0.39 µg/mL (≈ 1.08 µM)
MIC ([25]; IFO3761, 1×10^6 cells/ml): 0.024 µg/mL (≈ 0.0666 µM)
MIC ([25]; IFO3761, 1×10^8 cells/ml): 0.1 µg/mL (≈ 0.277 µM)
Minimum Inhibitory Concentration (Bacillus cereus IFO 3001; 1×10^6 cells/ml): 0.10 µg/mL
MIC (Bacillus cereus IFO 3001; Bacillus cereus, IFO3001, 1×10^8 cells/ml): 0.1 µg/mL (≈ 0.277 µM)
